Measurements: patent publication US11123350B2, “Metal delivery agents and therapeutic uses of the same” (THE UNIVERSITY OF MELBOURNE, priority 2006, dated 2021)

How the values were obtained:
cuprizone mouse model = test: Cuprizone mouse model of MS; assay type: in vivo; settings: daily oral treatment
From the text: (§1) I. Cu(ATSM) is protective in mouse models of MS. The two most widely used mouse models of MS are the experimental autoimmune encephalomyelitis (EAE) and cuprizone models. Some features of progressive MS are evident in each model. Administration of Cu(ATSM) to these mice (daily oral treatment) established that: (a) Cu(ATSM) improved body weight changes and neurological symptoms evident in the EAE mouse model; (b) Cu(ATSM) improved body weight changes evident in the cuprizone mouse model; and (c) treating with Cu(ATSM) improves myelination in the corpus callosum of the cuprizone mouse model.

[1] = test system: APP-transfected Chinese Hamster Ovary (APP-CHO) cells; test: Cellular copper uptake of Cu-BTSC complexes (ICP-MS); assay type: cell-based
Experimental: APP-transfected Chinese Hamster Ovary (APP-CHO) cells were treated with a range of [Cu(BTSC] complexes with dialkyl backbones at 1-50 μM for 6 hr in serum-free culture medium. Cells were washed twice with phosphate buffered saline (PBS) and cells scraped into fresh PBS and pelleted at 10,000 rpm in a microfuge for 5 min. Supernatant was discarded and cell pellets frozen at −70° C. until metal levels were determined by inductively-coupled plasma mass spectrometry (ICP-MS) at the Department of Pathology, University of Melbourne.

[2] = test system: M17 human neuroblastoma cells; test: Ionophore assay (metal uptake, ICPMS); assay type: cell-based; settings: 5 hours at 37° C., reported versus internal control Clioquinol
Experimental: M17 human neuroblastoma cells were plated out on 6 well plates and left overnight. Enough cells were added to give approximately 70% confluent the following day of the experiment.
The test cells were incubated in 1 ml of media and compound mix for 5 hours at 37° C. At the end of the incubation the media was removed with a vacuum aspirator and 1 ml of PBS added to dislodge the cells. Cells are then put into Eppendorf tubes and pelleted. The PBS is removed and the remaining cell pellets are frozen at −20° C.
Cell pellets of similar levels are placed in 1.5 ml microfuge tubes. To each tube was added 50 μl of concentrated Nitric Acid (Aristar, BDH) to each cell pellet and allowed each cell pellet was allowed to digest overnight. The samples were heated for 20 min at 90° C. to complete the digestion. The volume of each sample was reduced to ˜45 ? l after digestion. To each was added 1 ml of the 1% Nitric Acid diluent. Measurements were made using a Varian UltraMass ICPMS instrument under operating conditions suitable for routine multi-element analysis.
The instrument was calibrated using Blank, 10, 50 and 100 ppb of a certified multi-element ICPMS standard solution (ICP-MS-CAI2-1, Accustandard) for Fe, Cu and Zn in 1% nitric acid. Used an certified internal standard solution containing 100 ppb Yttrium (Y 89) as an internal control (ICP-MS-IS-MIX1-1, Accustandard).

[3] = cited from earlier work
EAE mouse model = test: Experimental autoimmune encephalomyelitis (EAE) mouse model of MS; assay type: in vivo; settings: daily oral treatment
From the text: as §1

[4] = test system: mice with 6-OHDA lesion of the SNpc; test: 6-OHDA lesion Parkinson's disease model, amphetamine-induced rotation; assay type: in vivo; settings: oral gavage 10 or 30 mg/kg daily, 7 days pre-lesion and 14 days post lesion
G93A-SOD1 mice = test: G93A SOD1 ALS mice: survival and onset of paralysis
WT cells = test: Dopamine induced cell death, WT cells (MTT); assay type: cell-based
Experimental: A series of trials were conducted in which the effect of CuGTSM on inhibiting Dopamine induced cell death were conducted on WT cells and A30P cells. The protocol used was as follows.
The cell line was maintained in OPTI-MEM (Gibco) supplemented with 10% fetal calf serum (FCS), Non-essential amino acids, sodium pyruvate and Penn/Strep. Cells were incubated at 37° C. in a humidified atmosphere of 95% air and 5% CO2. Cell assays were plated out into 48 well culture plates at 4×10^4 cells per well. Cells were left to settle overnight then incubated with drugs for 24h prior to being subjected to MTT assays for cell viability.
The viability of cells was assessed using an MTT assay. […] The mixture of media and reagents e.g. Dopamine was aspirated off and media containing 5 mg/mI MTT is added and the plate incubated for 1 h at 37° C. The remaining media/MTT solution is aspirated off and the cells were then solubilized with DMSO. The 48 well plate is then read at 595 nm on a plate reader.
In essence a series of WT cells and A30P cells were treated with a control, Dopamine, CuGTSM, Cu ATSM, and combinations of Dopamine and CuGTSM, and dopamine and CuATSM at various concentrations to determine the ability of the compound to act as an anti-oxidant and […] cell death. The results are shown in table 15 (WT cells) and Table 16 (A30P cells)

CN=C([S-])N/N=C(C)/C(C)=N/NC([S-])=NC.[64Cu+2] [Complex A2, copper(II)diacetylbis(N(4)-methylthiosemicarbazone)]
body weight changes in the cuprizone mouse model (cuprizone mouse model): improved | myelination in the corpus callosum (cuprizone mouse model): improves | fold increase in cellular copper levels compared to untreated control cells ([1]; 1-50 μM, 6 hr): 177±9 fold | cellular Copper level ([1]; treated, control 4.5): 796 ng/mg protein | Ionophore (% uptake of metal at 10 μm) [2]: 157.1% | reduction potential E1/2 ([3]; Cu(II) to Cu(I)): −0.59 V | Cu(II)/Cu(I) reduction potential, harder to reduce than [Cu(GTSM)] ([3]; difference to [Cu(GTSM)]): ~160 mV | body weight changes in the EAE mouse model (EAE mouse model): improved | neurological symptoms in the EAE mouse model (EAE mouse model): improved | amphetamine-induced rotation versus control group [4]: performed better | onset of paralysis in ALS mice (G93A-SOD1 mice; 30 mg/kg gavage once daily (5 days/week)): significantly delays | Increased Life Span (G93A-SOD1 mice; G93A-SOD1 mice, present results): 31 to 33 days | % recovery (WT cells; Dopamine 500 μm + complex 0.01 μM): 64.28% | % recovery (WT cells; Dopamine 500 μm + complex 0.1 μM): 103.13%
